Experimental data published in PMC7643960 (PLoS ONE, 2020).
Values joined by “and” are separate entries in the source; they are usually repeats but may differ in a detail not shown here. Equal entries are not always repeated. “Also recorded” adds a separate entry of the source.

What was measured:
[1] = tested on: human carbonic anhydrase isoenzyme I; design: method as in PMID 15664816; conditions: cited from earlier work
ES cells sRGO2 [2] = experiment: cell cycle investigation by flow cytometry (propidium iodide); assay type: cell-based, horse; conditions: double IC50 concentration
Protocol: (§1) Approximately 7.5 × 10^5 cells (MelDuWi) and 1.0 × 10^6 cells (PriFri2 and sRGO2) were seeded in 25 cm^2 cell culture flasks. […] Following 24 and 48 h of incubation, the cells were harvested by mild trypsinization and washed twice with phosphate-buffered saline (PBS) buffer (containing Mg^2+ and Ca^2+). Cells (1.0 × 10^6) were fixed with ethanol (70%, -20°C, for 24 h). After discarding the ethanol, the cells were washed in 1 mL PBS buffer (containing Mg^2+ and Ca^2+) and were centrifuged. The cell pellet was resuspended in 1 mL of staining PBS buffer (containing Mg^2+ and Ca^2+, 10 μg/mL RNASe [Thermofisher] and 15 μg/mL propidium iodide [Sigma-Aldrich, Munich, Germany]) and was incubated for 30 min at room temperature. Analyses were performed using the Attune® FACS machine (Life Technologies, Darmstadt, Germany) collecting data from the BL-2A channel. Doublet cells were excluded from the measurements by plotting BL-2A against BL-2H. A total of 20,000 events were collected for each cell cycle distribution. Each sample was measured in duplicate.

EMM cells MelDuWi [3] = experiment: AnnexinV-FITC/propidium iodide staining, flow cytometry; assay type: cell-based, horse; conditions: double IC50 concentration
Protocol: (§2) Approximately 7.5 × 10^5 cells (MelDuWi) and 1.0 × 10^6 cells (PriFri2 and sRGO2) were seeded in 25 cm^2 cell culture flasks. […] Following 24 and 48 h of incubation, cells were harvested by mild trypsinization and washed twice with PBS buffer (containing Mg^2+ and Ca^2+). Cells (1.0 × 10^6) were resuspended in AnnexinV binding buffer (BioLegend®, San Diego, US) to a concentration of 1.0 ‧ 10^6 cells/mL. Approximately 100,000 cells were stained with propidium iodide solution ([…], 1 mg/mL) and FITC AnnexinV solution ([…], BioLegend®) for 15 min in the dark at room temperature. After the addition of Annexin V binding buffer ([…]), the suspension was analyzed using the Attune® FACS machine (Life Technologies). After gating for living cells, the data from detectors BL-1A and BL-3A were collected. A total of 20,000 events were collected from each sample and technical duplicates were measured.

ES cells sRGO2 [4] = experiment: as above; assay type: cell-based, horse; conditions: double IC50 concentration
Protocol: as §2

[5] = tested on: equine dermal fibroblasts PriFri2; experiment: as above; assay type: cell-based, horse
Protocol: as §2

[6] = tested on: human carbonic anhydrase isoenzyme IX; design: method as in PMID 15664816; conditions: cited from earlier work
[7] = tested on: equine malignant melanoma [EMM] cells MelDuWi; experiment: SRB assay after 96 h; assay type: cell-based, horse; conditions: 96 h of drug exposure
Protocol: as §1
(§3) S1 Appendix. IC50 values measured by SRB Assay after 96 h. […] Measurements were carried out at least as thrice determination.

[8] = tested on: equine sarcoid [ES] cells sRGO2; experiment: SRB assay after 96 h; assay type: cell-based, horse; conditions: sRGO2, 96 h of drug exposure
Protocol: as §1, §3

[9] = tested on: equine dermal fibroblasts PriFi2; experiment: SRB assay after 96 h; assay type: cell-based, horse; conditions: PriFri2, 96 h of drug exposure
Protocol: as §1, §3

[10] = Franz-type diffusion cell (FDC) permeation with HPLC analysis; assay type: in vitro ADME, horse; conditions: any of the FDC experiments
Text: Two different pharmaceutical formulations were provided by Skinomics GmbH, Halle, Germany, for in vitro permeation studies.
Skin from six horses was used for each FDC experiment. The skin from the lateral thorax was dissected at the Institute of Pathology, University of Veterinary Medicine Hannover, Foundation, Hannover, Germany, after euthanasia of the horses at the Clinic for Horses, University of Veterinary Medicine Hannover, Foundation, for reasons unrelated to the present study. Therefore, a prospective approval of the experiments by an animal research ethics committee was not required. Skin samples were stored at -20°C until use (maximum five months). Further skin sample preparation and diffusion experiments were performed as reported. Skin samples were incubated with test formulation 1 for 24 h and with test formulation 2 for 30 min and 24 h, respectively.
The following slices were 20-μm thick. […] A higher permeation rate of the compound was expected for 24-h experiments and, therefore, the 20-μm slices were stored and analyzed separately up to a depth of 310 μm. The slices were then pooled at 5 × 20 μm until a depth of a maximal 910 μm was reached. The cryostat blade was cleaned with tissues soaked in 80% methanol between each cut. The quantity of NVX-207 was determined by an analytic high-performance liquid chromatography (HPLC) method. […]

horses affected by EMM = tested on: horses affected by EMM; design: method as in PMID 26772157; conditions: two EMM patients, once a week for 19 consecutive weeks; cited from earlier work
EMM cells MelDuWi [11] = conditions: read-out: 96-h IC50 value (sulforhodamine B assay); cited from earlier work
[12] = tested on: different malignancies in five dogs; conditions: cited from earlier work
[13] = PriFri2, 24 h, double IC50 concentration
[14] = PriFri2, 48 h, double IC50 concentration
[15] = equine dermal fibroblasts, 24 h, versus control

Row | Compound | Cell cycle percentage G1/G0 (ES cells sRGO2 [2]; sRGO2, 24 h) | Cell cycle percentage M (ES cells sRGO2 [2]; sRGO2, 24 h) | Cell cycle percentage S (ES cells sRGO2 [2]; sRGO2, 24 h) | Cell cycle percentage SubG1 (ES cells sRGO2 [2]; sRGO2, 24 h) | Cell cycle percentage G1/G0 (ES cells sRGO2 [2]; sRGO2, 48 h) | Cell cycle percentage M (ES cells sRGO2 [2]; sRGO2, 48 h) | Cell cycle percentage S (ES cells sRGO2 [2]; sRGO2, 48 h) | Cell cycle percentage SubG1 (ES cells sRGO2 [2]; sRGO2, 48 h) | AnnexinV staining: Living cells (EMM cells MelDuWi [3]; 24 h) | AnnexinV staining: early apop (EMM cells MelDuWi [3]; 24 h) | AnnexinV staining: late apop (EMM cells MelDuWi [3]; 24 h) | AnnexinV staining: necrotic (EMM cells MelDuWi [3]; 24 h) | AnnexinV staining: Living cells (EMM cells MelDuWi [3]; 48 h) | AnnexinV staining: early apop (EMM cells MelDuWi [3]; 48 h) | AnnexinV staining: late apop (EMM cells MelDuWi [3]; 48 h) | AnnexinV staining: Living cells (ES cells sRGO2 [4]; sRGO2, 24 h) | AnnexinV staining: early apop (ES cells sRGO2 [4]; sRGO2, 24 h) | AnnexinV staining: late apop (ES cells sRGO2 [4]; sRGO2, 24 h) | AnnexinV staining: necrotic (ES cells sRGO2 [4]; sRGO2, 24 h) | AnnexinV staining: Living cells (ES cells sRGO2 [4]; sRGO2, 48 h) | further results
1 | C=C(C)[C@@H]1CC[C@]2(COS(N)(=O)=O)CC[C@]3(C)[C@H](CC[C@@H]4[C@@]5(C)CC[C@H](OS(N)(=O)=O)C(C)(C)[C@@H]5CC[C@]43C)[C@@H]12 [BBS, (3β)-Lup-20(29)-ene-3,28-diol, 3,28-disulfamate] | 71,9% | 1,6% | 21,8% | 5,3% | 63,2% | 1,8% | 16,7% | 17,5% | 77,8% | 6,3% | 15,4% | 0,6% | 60,6% | 7,5% | 28.2% | 41,1% | 19,1% | 38,5% | 1,3% | 8,7% | inhibition of carbonic anhydrase I [1]: efficient inhibitor; AnnexinV staining: necrotic (EMM cells MelDuWi [3]; 48 h): 3,7%; AnnexinV staining: apoptotic cells (early and late) (ES cells sRGO2 [4]; sRGO2, 48 h): approximately 90%; AnnexinV staining: early apop (ES cells sRGO2 [4]; sRGO2, 48 h): 7,5%; AnnexinV staining: late apop (ES cells sRGO2 [4]; sRGO2, 48 h): 82% and 82.1%; AnnexinV staining: necrotic (ES cells sRGO2 [4]; sRGO2, 48 h): 1,8%; AnnexinV staining: Living cells [5, 13]: 68,0%; AnnexinV staining: early apop [5, 13]: 8,0%; AnnexinV staining: late apop [5, 13]: 22,4%; AnnexinV staining: necrotic [5, 13]: 1,6%; AnnexinV staining: Living cells [5, 14]: 33,1%; AnnexinV staining: early apop [5, 14]: 9,3%; AnnexinV staining: late apop [5, 14]: 54% and 53.6%; AnnexinV staining: necrotic [5, 14]: 4,1%; increase of early apoptotic cells [5, 15]: 5%; increase of late apoptotic cells [5, 15]: 3%; inhibition of carbonic anhydrase IX [6]: efficient inhibitor; IC50 [7]: 14.9 µM; IC50 [8]: 24.3 µM; IC50 [9]: 19.6 µM
2 | C=C(C)[C@@H]1CC[C@]2(C(=O)OCC(N)(CO)CO)CC[C@]3(C)[C@H](CC[C@@H]4[C@@]5(C)CC[C@H](OC(C)=O)C(C)(C)[C@@H]5CC[C@]43C)[C@@H]12 [NVX-207, 3-acetyl-betulinic acid-2-amino-3-hydroxy-2-hydroxymethyl-propanoate] | 76,6% | 6,4% | 15,8% | 0,6% | 64,5% | 3,9% | 13,7% | 17,1% | 48,9% | 20,0% | 30,8% | 0,3% | 29,8% | 24,3% | 45% and 44.8% | 76,6% | 3,7% | 19,1% | 0,5% | 38,5% | NVX-207 in the acceptor medium [10]: No NVX-207 was detected; safety of intralesional injection (horses affected by EMM): proved to be safe; also recorded: well tolerated; IC50 (EMM cells MelDuWi [11]): 5.6 µM; AnnexinV staining: apoptotic cells (early and late) (ES cells sRGO2 [4]; sRGO2, 48 h): about 60%; AnnexinV staining: early apop (ES cells sRGO2 [4]; sRGO2, 48 h): 12,5%; AnnexinV staining: late apop (ES cells sRGO2 [4]; sRGO2, 48 h): 47,9%; AnnexinV staining: apoptotic cells ([5]; PriFi2, 48 h, double IC50 concentration): about 85%; AnnexinV staining: Living cells [5, 13]: 50,0%; AnnexinV staining: early apop [5, 13]: 10,2%; AnnexinV staining: late apop [5, 13]: 37,6%; AnnexinV staining: necrotic [5, 13]: 2,2%; AnnexinV staining: Living cells [5, 14]: 12,3%; AnnexinV staining: early apop [5, 14]: 17,9%; AnnexinV staining: late apop [5, 14]: 67,1%; tolerability of intralesional treatment [12]: well tolerated; tumor response to intralesional treatment [12]: clinically beneficial tumor response was observed; IC50 [7]: 3.7 µM; IC50 [8]: 3.1 µM; IC50 [9]: 3.8 µM
